Experimental data taken from patent publication US10464963B2, “Compounds from invasive Salvinias and methods of using the same” (STEPHEN F. AUSTIN STATE UNIVERSITY, priority 2013, dated 2019).
Read-outs that look alike come from different tables or passages of the source.

What was measured:
[1] = tested on: human exocrine pancreatic cancer (BxPC-3); test: Cytotoxicity assay (WST-8), BxPC-3; format: cell-based; conditions: Homo sapiens
[2] = tested on: human non-small cell lung cancer (A549); test: Cytotoxicity assay (WST-8), A549; format: cell-based; conditions: Homo sapiens
Experimental: (§1) PANC-1 and MRC-5 was cultured in complete growth medium according to the ATCC protocols. Cells were grown at 37° C. and 5% CO2 in humidified air.
(§2) Cytotoxicity of total extracts of S. molesta was tested against PANC-1, A549, PC-3, and MRC-5. Cytotoxicity of the fractions was determined using A549 cells, a human non-small lung cancer cell line. Fractions were tested at 25, 50, and 100 μg/mL. The isolated pure compounds were tested in each of the cultured human tumor and normal cell lines at various concentrations between 1 and 100 μM with three replications. Human tumor and normal cells were inoculated into 96 well microtiter plates in 90 μL at plating densities ranging from 5,000 to 40,000 cells/well (measured by Z2 Coulter Counter of Beckman) depending on the doubling time of individual cell lines. Cell growth and viability was measured by WST-8 (Water Soluble Tetrazolium) assays following a standard protocol (Cell Counting Kit-8, Dojindo Molecular, Maryland). The WST-8 assay measured the relative activity of mitochondrial reductase enzymes in viable cells. A control WST reading (T0) before treatment was measured, then cells were continuously exposed to isolates for 48 h. After WST added and incubated for 2 h, the amount of formazan was measured by using a microplate spectrophotometer (μQuant spectrophotometer, Bio-Tek Instruments, Inc., Vermont) at 450 nm. TC or TD represents the readings of the untreated control or with tested compounds. Percent cell-growth (G) and percent cell-growth inhibition (GI) was calculated as: G=(TD−T0/TC−T0)×100; GI=[1−(TD−T0/TC−T0)]×100 for which TD≥T0; and G=(TD−T0/T0)×100; GI=[1−(TD−T0/T0)]×100 for which TD≤T0. […] Cancer drug doxorubicin was used as the positive controls in the cell-based assays.

[3] = tested on: human leukemia (HL-60); test: Cytotoxicity assay (WST-8), HL-60; format: cell-based; conditions: Homo sapiens
[4] = tested on: human prostate cancer (PC-3); test: Cytotoxicity assay (WST-8), PC-3; format: cell-based; conditions: Homo sapiens
Experimental: as §1, §2

[5] = Cytotoxicity assay (WST-8), MRC-5; format: cell-based, human; conditions: human
Experimental: as §1, §2

[6] = tested on: human exocrine pancreatic cancer (PANC-1); test: Cytotoxicity assay (WST-8), PANC-1; format: cell-based; conditions: Homo sapiens
Experimental: as §1, §2

[7] = tested on: normal human lung fibroblasts cells (MRC-5); test: Cytotoxicity assay (WST-8), MRC-5; format: cell-based
Experimental: as §1, §2

[8] = tested on: human breast cancer (MDA-MB-231); test: cells; format: cell-based
Source text: Human exocrine pancreatic cancer (PANC-1 and BxPC-3), non-small cell lung cancer (A549), prostate cancer (PC-3), breast cancer (MDA-MB-231), and leukemia (HL-60) were obtained from The University of Texas M. D. Anderson Cancer Center, Houston, Tex., and Normal human lung fibroblasts cells (MRC-5) was purchased from the American Type Culture Collection (ATCC). PC-3, A549 and HL-60 cells were maintained in RPMI 1640 medium supplemented with 10% (v/v) fetal bovine serum and antibiotics (1,000 units/mL penicillin-streptomycin solution, Hyclone). PANC-1 and MRC-5 was cultured in complete growth medium according to the ATCC protocols. Cells were grown at 37° C. and 5% CO2 in humidified air.
Cytotoxicity of total extracts of S. molesta was tested against PANC-1, A549, PC-3, and MRC-5. Cytotoxicity of the fractions was determined using A549 cells, a human non-small lung cancer cell line. Fractions were tested at 25, 50, and 100 μg/mL. The isolated pure compounds were tested in each of the cultured human tumor and normal cell lines at various concentrations between 1 and 100 μM with three replications. Human tumor and normal cells were inoculated into 96 well microtiter plates in 90 μL at plating densities ranging from 5,000 to 40,000 cells/well (measured by Z2 Coulter Counter of Beckman) depending on the doubling time of individual cell lines. Cell growth and viability was measured by WST-8 (Water Soluble Tetrazolium) assays following a standard protocol (Cell Counting Kit-8, Dojindo Molecular, Maryland). The WST-8 assay measured the relative activity of mitochondrial reductase enzymes in viable cells. A control WST reading (T0) before treatment was measured, then cells were continuously exposed to isolates for 48 h. After WST added and incubated for 2 h, the amount of formazan was measured by using a microplate spectrophotometer (μQuant spectrophotometer, Bio-Tek Instruments, Inc., Vermont) at 450 nm. TC or TD represents the readings of the untreated control or with tested compounds. Percent cell-growth (G) and percent cell-growth inhibition (GI) was calculated as: G=(TD−T0/TC−T0)×100; GI=[1−(TD−T0/TC−T0)]×100 for which TD≥T0; and G=(TD−T0/T0)×100; GI=[1−(TD−T0/T0)]×100 for which TD≤T0. To determine the inhibitory potency of active compounds (GI50, 50% cell-growth inhibition), tests were extended to additional concentrations (varying from 0.01 to 100 μM). Cancer drug doxorubicin was used as the positive controls in the cell-based assays.

[9] = BXPC-3, 48 h, read-out: Cytotoxic activity (GI50) BxPC-3
[10] = BXPC-3, Table 1, read-out: Activity against human exocrine pancreatic tumor BxPC-3 (GI50) (converted)
[11] = A549, 48 h, read-out: Cytotoxic activity (GI50) A549
[12] = A549, Table 1, read-out: Activity against human non-small cell lung tumor A549 (GI50) (converted)
[13] = HL-60, 48 h, read-out: Cytotoxic activity (GI50) HL-60
[14] = HL-60, Table 1, read-out: Activity against human leukemia HL-60 (GI50) (converted)
[15] = 48 h, read-out: Cytotoxic activity (GI50) PC-3
[16] = Table 1, read-out: Activity against human prostate tumor PC-3 (GI50) (converted)
[17] = PANC-1, 48 h, read-out: Cytotoxic activity (GI50) PANC-1
[18] = PANC-1, Table 1, read-out: Activity against human exocrine pancreatic tumor PANC-1 (GI50)
[19] = A549, Table 7, WST-8, 48 h exposure, mean ± S.D., read-out: Cytotoxic activity (GI50) A549

| Compound | GI50 [1, 9] [µM] | GI50 [1, 10] [µM] | GI50 [2, 11] [µM] | GI50 [2, 12] [µM] | GI50 [3, 13] [µM] | GI50 [3, 14] [µM] | GI50 [4, 15] [µM] | GI50 [4, 16] [µM] | GI50 at 48 h [5] [µM] | GI50 [6, 17] [µM] | GI50 [6, 18] [µM] | GI50 ([1]; BXPC-3, Table 7, WST-8, 48 h exposure, mean ± S.D., read-out: Cytotoxic activity (GI50) BxPC-3) [µM] | GI50 [2, 19] [µM] | GI50 ([3]; HL-60, Table 7, WST-8, 48 h exposure, mean ± S.D., read-out: Cytotoxic activity (GI50) HL-60) [µM] | GI50 ([4]; Table 7, WST-8, 48 h exposure, mean ± S.D., read-out: Cytotoxic activity (GI50) PC-3) [µM] | GI50 ([7]; human, 48 h) [µM] | GI50 ([6]; PANC-1, Table 7, WST-8, 48 h exposure, mean ± S.D., read-out: Cytotoxic activity (GI50) PANC-1) [µM] | GI50 ([8]; MDA-MB-231, 48 h, read-out: Cytotoxic activity (GI50) MDA-MB-231) [µM] | GI50 ([8]; MDA-MB-231, Table 1, read-out: Activity against human breast tumor MDA-MB-231 (GI50)) [µM] | Toxicity against normal cell (in words) [7] |
| --- | --- | --- | --- | --- | --- | --- | --- | --- | --- | --- | --- | --- | --- | --- | --- | --- | --- | --- | --- | --- |
| CC(C)c1cc2c(cc1O)[C@@]1(C)CCCC(C)(C)C1C=C2 (stereo partly shown) [Compound 16, 6,7-dehydroferruginol] | 37.5 ± 4.01 | 37.5 | 53.8 ± 9.65 | 53.8 | 66.52 ± 0.04 | 66.5 | 58.1 ± 3.28 | 58.1 | 59.2 ± 7.56 | 46.7 ± 11 | 46.7 |  |  |  |  |  |  |  |  |  |
| CC(C)c1cc(C=O)c([C@@]2(C)CCCC(C)(C)[C@H]2C=O)cc1O [Compound 22, 12-hydroxy-6,7-secoabieta-8,11,13-triene-6,7-dial] |  |  | 93.8 ± 21.4 | 93.8 |  |  |  |  |  |  |  |  |  |  |  |  |  |  |  |  |
| CC(C)c1cc2c(cc1O)[C@@]1(C)CCCC(C)(C)[C@@H]1CC2 [Compound 14, ferruginol] |  |  |  |  |  |  |  |  |  |  |  | 21.1 ± 0.51 | 30.7 ± 5.22 | 27.3 ± 8.95 | 56.5 ± 16.5 | 40 ± 7.74 | 41.1 ± 14.1 |  |  |  |
| CC(C)c1cc2c(c(O)c1O)[C@@]1(C)CCCC(C)(C)C1=C(O)C2=O [Compound 7, 14-deoxycoleon U] | 37.3 ± 7.44 | 37.3 | 9.1 ± 2.47 | 9.1 | 13.3 ± 5.62 |  | 8.39 ± 0.86 |  | 24.8 | 22.6 ± 4.18 | 22.6 |  |  |  |  |  |  | > 100 | > 100 | no toxic against normal cell |
| COc1cc2c(cc1C(C)C)C(=O)C(O)=C1C(C)(C)CCC[C@@]12C [Compound 11, montbretyl 12-methyl ether] |  |  |  | 21.2 |  |  |  |  |  |  |  |  | 21.2 ± 6.21 |  |  |  |  |  |  |  |
| CC(C)c1cc2c(c(O)c1O)[C@@]1(C)CCCC(C)(C)[C@@H]1CC2=O [Compound 12, 11-hydroxysugiol] | 45 ± 8.33 | 45 | 35 ± 6.2 | 35 | 35.3 ± 0.63 | 35.3 | 41 ± 7.9 | 41 | 40.2 ± 0.91 | 43.1 ± 8.32 | 43.1 |  |  |  |  |  |  |  |  |  |
| CC(C)c1cc2c(cc1O)[C@@]1(C)CCCC(C)(C)C1CC2O (stereo partly shown) [Compound 15, 7-hydroxyferruginol] | 74.7 ± 11.1 | 74.7 | 75.1 ± 7.04 | 75.1 | 75.2 ± 1.02 | 75.2 | 85.6 ± 5.3 | 85.6 | 70.5 ± 7.21 | 78.2 ± 13.5 | 78.2 |  |  |  |  |  |  |  |  |  |
